The results in this text go back to article PMC8725944, “Design and synthesis of chromone-nitrogen mustard derivatives and evaluation of anti-breast cancer activity” (Journal of Enzyme Inhibition and Medicinal Chemistry, 2021).

Structures are written as SMILES. A value given as a limit tells only on which side of the number the result lay.

For this assay, the system named is TNBC cell line MDA-MB-231. As to the kind of experiment: CCK-8 assay, antiproliferative activity against MDA-MB-231. Particulars: Homo sapiens, MDA-MB-231, 72 h, read-out: IC50 MDA-MB-231.

On to `COC(=O)[C@H](Cc1ccc(N(CCCl)CCCl)cc1)NC(=O)CCCC(=O)OCc1coc2ccc(OC)cc2c1=O` [Compound 18e, (6-Methoxy-4-oxo-4H-chromen-3-yl)methyl (S)-5-((3-(4-(bis(2-chloroethyl)amino)phenyl)-1-methoxy-1-oxopropan-2-yl)amino)-5-oxopentanoate], for which the IC50 (usually the concentration needed to halve the response being measured) is 8.98 ± 0.26 µM.
The value for `COc1cccc2c1C(=O)c1c(O)c3c(c(O)c1C2=O)C[C@@](O)(C(=O)CO)C[C@@H]3O[C@H]1C[C@H](N)[C@H](O)[C@H](C)O1` [Adriamycin, reference compound] was 2.94 ± 0.12 µM.
With `COC(=O)[C@H](Cc1ccc(N(CCCl)CCCl)cc1)NC(=O)CCC(=O)OCc1coc2ccc(OC)cc2c1=O` [Compound 18d, (6-Methoxy-4-oxo-4H-chromen-3-yl)methyl (S)-4-((3-(4-(bis(2-chloroethyl)amino)phenyl)-1-methoxy-1-oxopropan-2-yl)amino)-4-oxobutanoate], the IC50 turned out to be 12.8 ± 0.32 µM.
On to `COc1ccc2occ(CN)c(=O)c2c1` [Compound 20], for which the IC50 is above 20 µM.
For `COc1ccc2occ(COC(=O)[C@H](Cc3ccc(N(CCCl)CCCl)cc3)NC=O)c(=O)c2c1` [Compound 18b, (6-Methoxy-4-oxo-4H-chromen-3-yl)methyl (S)-3-(4-(bis(2-chloroethyl)amino)phenyl)-2-formamidopropanoate] the value was 11.5 ± 0.35 µM; for `Cc1ccc2occ(CO)c(=O)c2c1` [Compound 15], above 20 µM; for `O=CN[C@@H](Cc1ccc(N(CCCl)CCCl)cc1)C(=O)O` [Compound 6, formylmerphalan, reference compound], above 20 µM.
The value for `CC(C)(C)OC(=O)N[C@@H](Cc1ccc(N(CCCl)CCCl)cc1)C(=O)O` [Compound 7, Boc-protected melphalan, reference compound] was above 20 µM; that for `Cc1ccc2occ(COC(=O)[C@H](Cc3ccc(N(CCCl)CCCl)cc3)NC(=O)OC(C)(C)C)c(=O)c2c1` [Compound 17c, (6-Methyl-4-oxo-4H-chromen-3-yl)methyl (S)-3-(4-(bis(2-chloroethyl)amino)phenyl)-2-((tert-butoxycarbonyl)amino)propanoate] was above 20 µM; that for `COC(=O)[C@H](Cc1ccc(N(CCCl)CCCl)cc1)NC(=O)CCCC(=O)NCc1coc2ccc(C)cc2c1=O` [Compound 21e, Methyl (S)-3-(4-(bis(2-chloroethyl)amino)phenyl)-2–(5-(((6-methyl-4-oxo-4H-chromen-3-yl)methyl)amino)-5-oxopentanamido)propanoate] was 4.47 ± 0.15 µM.
The value for `Cc1ccc2occ(CNC(=O)c3ccc(N(CCCl)CCCl)cc3)c(=O)c2c1` [Compound 21a, 4-(Bis(2-chloroethyl)amino)-N-((6-methyl-4-oxo-4H-chromen-3-yl)methyl)benzamide] was 14.9 ± 1.06 µM; that for `COc1ccc2occ(COC(=O)c3ccc(N(CCCl)CCCl)cc3)c(=O)c2c1` [Compound 18a, (6-Methoxy-4-oxo-4H-chromen-3-yl)methyl 4-(bis(2-chloroethyl)amino)benzoate] was 9.47 ± 0.38 µM.
Regarding `Cc1ccc2occ(CN)c(=O)c2c1` [Compound 19], the half-inhibitory concentration (IC50) is above 20 µM.
Take `COc1ccc2occ(CO)c(=O)c2c1` [Compound 16]: the IC50 is above 20 µM.
For `COC(=O)[C@H](Cc1ccc(N(CCCl)CCCl)cc1)NC(=O)CCC(=O)O` [Compound 9, reference compound] the value was above 20 µM; for `COC(=O)[C@H](Cc1ccc(N(CCCl)CCCl)cc1)NC(=O)CCC(=O)NCc1coc2ccc(OC)cc2c1=O` [Compound 22d, Methyl (S)-3-(4-(bis(2-chloroethyl)amino)phenyl)-2-(4-(((6-methoxy-4-oxo-4H-chromen-3-yl)methyl)amino)-4-oxobutanamido)propanoate], 3.05 ± 0.14 µM.
`COC(=O)[C@H](Cc1ccc(N(CCCl)CCCl)cc1)NC(=O)CCCC(=O)O` [Compound 10, reference compound]: the IC50 is above 20 µM.
The value for `COC(=O)[C@H](Cc1ccc(N(CCCl)CCCl)cc1)NC(=O)CCC(=O)NCc1coc2ccc(C)cc2c1=O` [Compound 21d, Methyl (S)-3-(4-(bis(2-chloroethyl)amino)phenyl)-2-(4-(((6-methyl-4-oxo-4H-chromen-3-yl)methyl)amino)-4-oxobutanamido)propanoate] was 6.87 ± 0.19 µM; that for `COC(=O)[C@H](Cc1ccc(N(CCCl)CCCl)cc1)NC(=O)CCCC(=O)OCc1coc2ccc(C)cc2c1=O` [Compound 17e, (6-Methyl-4-oxo-4H-chromen-3-yl)methyl (S)-5-((3-(4-(bis(2-chloroethyl)amino)phenyl)-1-methoxy-1-oxopropan-2-yl)amino)-5-oxopentanoate] was 8.32 ± 0.34 µM; that for `Cc1ccc2occ(COC(=O)[C@H](Cc3ccc(N(CCCl)CCCl)cc3)NC=O)c(=O)c2c1` [Compound 17b, (6-Methyl-4-oxo-4H-chromen-3-yl)methyl (S)-3–(4-(bis(2-chloroethyl)amino)phenyl)-2-formamidopropanoate] was 13.2 ± 1.12 µM.
In the case of `Cc1ccc2occ(COC(=O)c3ccc(N(CCCl)CCCl)cc3)c(=O)c2c1` [Compound 17a, (6-Methyl-4-oxo-4H-chromen-3-yl)methyl 4-(bis(2-chloroethyl)amino)benzoate], the IC50 amounted to 9.57 ± 0.65 µM.
Turning to `COC(=O)[C@H](Cc1ccc(N(CCCl)CCCl)cc1)NC(=O)CCC(=O)OCc1coc2ccc(C)cc2c1=O` [Compound 17d, (6-Methyl-4-oxo-4H-chromen-3-yl)methyl (S)-4-((3-(4-(bis(2-chloroethyl)amino)phenyl)-1-methoxy-1-oxopropan-2-yl)amino)-4-oxobutanoate], the half-maximal inhibitory concentration (IC50) stood at 11.4 ± 0.2 µM.
The value for `Cc1ccc2occ(CNC(=O)[C@H](Cc3ccc(N(CCCl)CCCl)cc3)NC(=O)OC(C)(C)C)c(=O)c2c1` [Compound 21c, Tert-butyl (S)-(3-(4-(bis(2-chloroethyl)amino)phenyl)-1-(((6-methyl-4-oxo-4H-chromen-3-yl)methyl)amino)-1-oxopropan-2-yl)carbamate] was 12.7 ± 0.48 µM; that for `COc1ccc2occ(CNC(=O)[C@H](Cc3ccc(N(CCCl)CCCl)cc3)NC(=O)OC(C)(C)C)c(=O)c2c1` [Compound 22c, Tert-butyl (S)-(3-(4-(bis(2-chloroethyl)amino)phenyl)-1-(((6-methoxy-4-oxo-4H-chromen-3-yl)methyl)amino)-1-oxopropan-2-yl)carbamate] was 9.87 ± 0.36 µM.
Take `Cc1ccc2occ(CNC(=O)[C@H](Cc3ccc(N(CCCl)CCCl)cc3)NC=O)c(=O)c2c1` [Compound 21b, (S)-3-(4-(bis(2-chloroethyl)amino)phenyl)-2-formamido-N-((6-methyl-4-oxo-4H-chromen-3-yl)methyl)propanamide]: the IC50 was determined as 9.42 ± 0.29 µM.
Take `COc1ccc2occ(COC(=O)[C@H](Cc3ccc(N(CCCl)CCCl)cc3)NC(=O)OC(C)(C)C)c(=O)c2c1` [Compound 18c, (6-Methoxy-4-oxo-4H-chromen-3-yl)methyl (S)-3-(4-(bis(2-chloroethyl)amino)phenyl)-2-((tert-butoxycarbonyl)amino)propanoate]: the IC50 came out at 16.7 ± 0.69 µM.
As for `COc1ccc2occ(CNC(=O)[C@H](Cc3ccc(N(CCCl)CCCl)cc3)NC=O)c(=O)c2c1` [Compound 22b, (S)-3-(4-(bis(2-chloroethyl)amino)phenyl)-2-formamido-N-((6-methoxy-4-oxo-4H-chromen-3-yl)methyl)propanamide], the IC50 stood at 4.65 ± 0.22 µM.
For `COc1ccc2occ(CNC(=O)c3ccc(N(CCCl)CCCl)cc3)c(=O)c2c1` [Compound 22a, 4-(Bis(2-chloroethyl)amino)-N-((6-methoxy-4-oxo-4H-chromen-3-yl)methyl)benzamide] the value was 10.6 ± 0.58 µM.
As to `N[C@@H](Cc1ccc(N(CCCl)CCCl)cc1)C(=O)O` [Compound 5, melphalan, reference compound], the IC50 was above 20 µM.
